Here are results for four molecules from ChEMBL document CHEMBL3044560, “Microwave-assisted synthesis and antimicrobial activity of some imidazo[2,1-b][1,3,4]thiadiazole derivatives” (2012).

In test [1] the test system is Klebsiella. Kind of test: Antimicrobial activity against Klebsiella at 10 ug/ml after 24 hr by cup-plate method. Type of test: functional. As to conditions: read-out: IZ.
For test [2], the system named is Staphylococcus aureus. Put plainly: Antimicrobial activity against Staphylococcus aureus at 10 ug/ml after 24 hr by cup-plate method. Conditions: read-out: IZ.
In test [3] the test system is Klebsiella. Put plainly: Antimicrobial activity against Klebsiella at 50 ug/ml after 24 hr by cup-plate method. It counts as functional.
In test [4] the test system is Candida albicans. Put plainly: Antimicrobial activity against Candida albicans at 50 ug/ml after 72 hr by cup-plate method. It counts as functional. As to conditions: read-out: IZ.
Test [5] relates to Staphylococcus aureus. Put plainly: Antimicrobial activity against Staphylococcus aureus at 75 ug/ml after 24 hr by cup-plate method. It counts as functional.
In test [6] the test system is Candida albicans. Kind of test: Antimicrobial activity against Candida albicans at 5 ug/ml after 72 hr by cup-plate method. Conditions: read-out: IZ. Type of test: functional.
Test [7] relates to Candida albicans. Put plainly: Antimicrobial activity against Candida albicans at 50 to 70 ug/ml after 72 hr by cup-plate method. Type of test: functional, organism-based.
Test [8] has as its system Candida albicans. Kind of test: Antimicrobial activity against Candida albicans at 30 ug/ml after 72 hr by cup-plate method. Type of test: functional. As to conditions: read-out: IZ.

Calls of active or inactive are those of the source. No cut-off for these calls is given here.

On to `O=C(O)c1cn(C2CC2)c2cc(N3CCNCC3)c(F)cc2c1=O` [CIPROFLOXACIN], for which the zone of inhibition at 10 µg/mL in test [1] and in test [2] was 28 mm each time.

`O=[N+]([O-])c1ccc(Cc2nn3cc(-c4ccc(F)cc4)nc3s2)cc1`: the “inhibition zone (IZ)” value in test [3] and in test [5] was “inactive” throughout. Also, in test [4], the zone of inhibition at 50 µg/mL was 22 mm.

Take `O=[N+]([O-])c1ccc(Cc2nn3cc(-c4ccc(Br)cc4)nc3s2)cc1`: the zone of inhibition at 5 µg/mL in test [6] was 14 mm. Also, the “inhibition zone (IZ)” value in test [7] and in test [5] was “inactive” throughout.

Regarding `OC(Cn1cncn1)(Cn1cncn1)c1ccc(F)cc1F` [FLUCONAZOLE], the zone of inhibition at 30 µg/mL in test [8] is 22 mm.
